One data set relates to SKH-1 mice. The data set is described as follows: Preliminary experiment assessing adverse effects of bucillamine alone in SKH-1 mice. In kind it is in vivo. As to conditions: 20 mg/kg s.c., two doses 24 hours apart, no UVB. The procedure:
In order to assess any adverse effects of bucillamine and UV exposure separately, a preliminary experiment was carried out in which SKH-1 mice were either treated with bucillamine (20 mg/kg s.c.) or UVB (230 mJ/cm^2) irradiation. Bucillamine can, for example, be administered intravenously, subcutaneously, intramuscularly or orally. Subcutaneous administration was used because it is a relatively easy route and the least likely to injure the animal during administration. The selection of bucillamine dose and UVB dose was based on previously published studies (13, 19, 21, 22). High dose of UVB (230 mJ/cm^2) was selected to investigate bucillamine effect on acute photodamage. Each group of animals received two doses of bucillamine or UVB, 24 hours apart. […] UVB exposure caused edema, erythema and thickening of the exposed skin.

Data set [1] concerns UV-exposed skin of SKH-1 hairless mice. The data set is described as follows: Histology of UVB-exposed dorsal skin after bucillamine pre-treatment. In kind it is in vivo. An excerpt: (§1) Animals and treatment for Example 2. Female SKH-1 hairless mice (6 weeks old) were purchased from Charles River Laboratories (Wilmington, Mass.). After their arrival, animals were housed at UCDHSC vivarium under specific pathogen-free conditions according to the National Institutes of Health Animal Care Guidelines under an Institutional protocol reviewed and approved by the Institutional Animal Care and Use Committee (IACUC). Animals were allowed to acclimatize for a week prior to the experiment. Animals were fed Purina chow diet and water ad libitum. Throughout the experimental protocol, the mice were maintained at standard conditions; temperature 24±2° C., relative humidity 50±10%, and 12 hour room light/12 hour dark cycle. Mice were divided into four groups. […] The remaining animals were divided into UV exposure alone (Group 2), UV+saline treatment (Group 3) and UV+bucillamine treatment (Group 4). Mice in groups 2-4 were exposed to two doses of 230 mJ/cm^2 UVB, 24 hours apart. Two hours prior to each UVB exposure, mice in groups 3 and 4 were treated with normal saline (Group 3) or bucillamine at a concentration of 20 mg/kg of body weight (Group 4) subcutaneously. Animals were sacrificed after the last UVB exposure at various time points, and the dorsal skin was surgically removed and used for further analysis.
UVB Source. We employed four FS-40-T-12-UVB sunlamps with UVB spectra 305 Dosimeter (Daavlin, Bryan, Ohio), which emitted about 80% radiation in the range of 280-340 nm with a peak emission at 314 nm as monitored with a SEL 240 photodetector, 103 filter and 1008 diffuser attached to an IL1400A NIST Traceable Radiometer/Photometer from International Light (Newburyport, Mass.). The UVB irradiation doses were also calibrated using an IL1400A radiometer.
Histopathology. Skin samples were fixed in 10% formalin and embedded in paraffin. Vertical sections (4 μm thickness) were cut and mounted on a glass slide, and stained with hematoxylin and eosin followed by microscopic evaluation of the slides. SKH-1 hairless mice were unexposed or irradiated with UVB (230 mJ/cm^2) twice, 24 hours apart. Mice irradiated with UVB were untreated or pre-treated with bucillamine or saline. Skin samples were collected at 6 hours and 24 hours after the last UVB exposure, and processed for histopathological analysis.

Data set [2] has as its system p53. Briefly: UVB-mediated total p53 induction in skin lysates (immunoblot). In kind it is in vivo, mice. As to conditions: 20 mg/kg s.c. pre-treatment.
Excerpt: as §1, with “Animals were sacrificed after the last UVB exposure at various time points, and the dorsal skin was surgically removed and used for further analysis.” left out
(§2) SDS-PAGE and immunoblot analysis. Proteins were analyzed by SDS-PAGE (12% gels) followed by transfer to a polyvinylidene difluoride membrane (0.4 μM) in 25 mM Tris, 192 mM glycine, and 20% methanol at 110 V for 1 hour. […]
Background: Immunoblotting shows a protein as a band on a membrane.

In data set [3] the test system is p53. Briefly: Immunohistochemical analysis of nuclear p53 staining in epidermal keratinocytes. As to conditions: 24 hours after the last UVB exposure; 20 mg/kg s.c. pre-treatment. The class given is in vivo, mice.
Excerpt: as §1, with “at […]” for “at UCDHSC”, “subcutaneously. […] All samples” for “subcutaneously. Animals”, “were coded and evaluated by” for “were sacrificed after the last UVB exposure”, “at least two investigators in a blinded manner. […]” for “at various time points, and the dorsal skin was surgically removed and used for further analysis.”

The subject of a further data set is p53 (Ser15, Ser20). The data set is described as follows: UVB-induced phosphorylation of p53 at Ser15 and Ser20 in skin (immunoblot). In kind it is in vivo, mice. As to conditions: 20 mg/kg s.c. pre-treatment.
Excerpt: as §1, with “Animals were sacrificed after the last UVB exposure at various time points, and the dorsal skin was surgically removed and used for further analysis.” left out
as §2

The subject of the next data set is PUMA. The data set is described as follows: UVB-induced activation of PUMA, downstream target of p53, in skin. The class given is in vivo, mice. The settings on record: 12 and 24 hours after the last UVB exposure; 20 mg/kg s.c. pre-treatment.
Excerpt: as §1, with “Animals were sacrificed after the last UVB exposure at various time points, and the dorsal skin was surgically removed and used for further analysis.” left out
as §2

Data set [4] concerns ubiquitin proteasomal pathway (UPP) in 8B20 mouse melanoma cells. Briefly: Ubiquitin immunoblot controls for UPP inhibition in 8B20 cells. The class given is cell-based. As to conditions: 50 μM, negative control. As for the experimental part:
As a positive control of UPP inhibition, we used 8B20 mouse melanoma cells treated with UPP inhibitors MG132 (10 μM) and Lactacystin (10 μM), and as a negative control we used 8B20 cells treated with etoposide (50 μM), a DNA damaging agent.
SDS-PAGE and immunoblot analysis. Proteins were analyzed by SDS-PAGE (12% gels) followed by transfer to a polyvinylidene difluoride membrane (0.4 μM) in 25 mM Tris, 192 mM glycine, and 20% methanol at 110 V for 1 hour. Membranes were blocked overnight in 10 mM Tris-HCl, pH 8.0, 125 mM NaCl, and 0.2% (v/v) Tween 20 containing 5% (w/v) nonfat dry milk (TBST-M5). Immunoblot analysis of the total protein bands were visualized using enhanced chemiluminescence as described by the manufacturer (Pierce Biotechnology, Inc., Rockford, Ill.). Immunoblots were subsequently stripped of antibodies by incubating for 15-20 minutes at 37° C. with Restore Western Stripping Buffer (Pierce Biotechnology, Inc., Rockford, Ill.) and re-probed with β-actin antibody to confirm protein loading. Densitometric analysis of the membranes was performed using GelDoc 200 (Bio-Rad Laboratories, Hercules, Calif.).

[5] abbreviates: 12 and 24 hours after the last UVB exposure.
Where [6] appears, read: 6 hours after the last UVB exposure.

This is an account of results in US20090169497A1, “Treatment and Prevention of Skin Injury Due to Exposure to Ultraviolet Light” (priority 2007, published 2009).

“Also recorded” adds a separate entry of the source.

In the case of `CC(C)(S)C(=O)N[C@@H](CS)C(=O)O` [bucillamine, N-(2-mercapto-2-methylpropionyl)-L-cysteine], in the data set with SKH-1 mice, the adverse effects entry is listed as “no adverse effects”. Besides, the “UVB-induced erythema of dorsal skin” value in data set [1] (20 mg/kg s.c. 2 h before each of two 230 mJ/cm^2 UVB exposures) is listed as “attenuated the erythema”. In addition, the UVB-induced inflammation result in data set [1] (12 and 24 hours after the last UVB exposure, pre-treatment) is recorded as “attenuated the inflammation”. In addition, in data set [1] (6 hours after the last UVB exposure, 20 mg/kg s.c. pre-treatment), the “epidermal necrosis (histology)” value is “epidermal necrosis was less prominent”. Further, the “UV-effects on inflammation (dermal edema, leukocyte infiltration, dilatation of blood vessels)” value in data set [1] (24 hours after the last UVB exposure, 20 mg/kg s.c. pre-treatment) is listed as “attenuated the UV-effects on inflammation”. Besides, in the data set with p53 [2] (setting [5]), the p53 level result was “further decreased”. In addition, in the data set on p53 [2] (setting [6]), the “induction of total p53” value is “attenuated this effect”. In addition, the “nuclear p53 staining in epidermal keratinocytes” value in the data set with p53 [3] was “diminished this effect”. Besides, the “phosphorylation of p53 at Ser15 and Ser20” value was “further diminished the phosphorylation; also recorded: quick decrease” with p53 (Ser15, Ser20) (setting [5]) and “attenuated this effect” with p53 (Ser15, Ser20) (setting [6]). Moreover, the “activation of PUMA” value in the data set on PUMA was “attenuated the activation of PUMA”.

Turning to `COc1cc([C@@H]2c3cc4c(cc3[C@@H](O[C@@H]3O[C@@H]5CO[C@@H](C)O[C@H]5[C@H](O)[C@H]3O)[C@H]3COC(=O)[C@H]23)OCO4)cc(OC)c1O` [etoposide], the “ubiquitin reactive high molecular weight bands (polyubiquitinated species)” value in data set [4] is on record as “no polyubiquitinated species”.
